Experimental data: ChEMBL document CHEMBL1201862, “PubChem BioAssay data set” (2004)
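Assay format: 96-well plates, 48-hour exposure. Abbreviation: GI50, concentration required for 50% inhibition of growth.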 Active and inactive are the calls of the source. Cut-off read from the data, not from the text of the source: active = GI50 up to about 1.1 µM and inactive = higher.

What was measured:
Experiment in all cases: NCI-60 cell line screen, 48 h
786-0 = system: 786-0
A498 = system: A498
DU-145 = system: DU-145
HCT-116 = system: HCT-116
HT-29 = system: HT-29
KM12 = system: KM12
M14 = system: M14
MDA-N = system: MDA-N
OVCAR-3 = system: OVCAR-3
PC-3 = system: PC-3
SF-539 = system: SF-539
SK-MEL-28 = system: SK-MEL-28
SK-MEL-2 = system: SK-MEL-2
SN12C = system: SN12C
SNB-19 = system: SNB-19
T47D = system: T47D
TK-10 = system: TK-10
UACC-257 = system: UACC-257
UACC-62 = system: UACC-62

Question: What does the source list for `CCc1cc(-c2nsc(=O)o2)c(S(=O)(=O)CC)s1`?
Answer: GI50 (786-0): > 100 µM (inactive); GI50 (A498): > 100 µM (inactive); GI50 (DU-145): > 100 µM (inactive); GI50 (HCT-116): 43.3 µM (inactive); GI50 (HT-29): 84.9 µM (inactive); GI50 (KM12): 38.4 µM (inactive); GI50 (M14): 76 µM (inactive); GI50 (MDA-N): 75 µM (inactive); GI50 (OVCAR-3): > 100 µM (inactive); GI50 (PC-3): 33.4 µM (inactive); GI50 (SF-539): > 100 µM (inactive); GI50 (SK-MEL-28): 49.3 µM (inactive); GI50 (SK-MEL-2): 95.5 µM (inactive); GI50 (SN12C): > 100 µM (inactive); GI50 (SNB-19): 77.8 µM (inactive); GI50 (T47D): 76.7 µM (inactive); GI50 (TK-10): > 100 µM (inactive)

Question: Which results are given for `O=S(=O)(O)c1cc(Cl)c(O)c2ncc(Cl)cc12`?
Answer: GI50 (786-0): 92 µM (inactive); GI50 (A498): > 100 µM (inactive); GI50 (DU-145): > 100 µM (inactive); GI50 (HCT-116): 36.5 µM (inactive); GI50 (HT-29): 38.5 µM (inactive); GI50 (KM12): > 100 µM (inactive); GI50 (M14): 90.8 µM (inactive); GI50 (MDA-N): > 100 µM (inactive); GI50 (OVCAR-3): 69.2 µM (inactive); GI50 (PC-3): > 100 µM (inactive); GI50 (SF-539): 50.4 µM (inactive); GI50 (SK-MEL-28): > 100 µM (inactive); GI50 (SK-MEL-2): > 100 µM (inactive); GI50 (SN12C): 64 µM (inactive); GI50 (SNB-19): 84.7 µM (inactive); GI50 (T47D): > 100 µM (inactive); GI50 (UACC-257): > 100 µM (inactive); GI50 (UACC-62): 50.1 µM (inactive)

Question: Which GI50 (786-0) does the source give for `C=CC[C@]12C[C@@H](C(=O)OC)N(C(=O)OC)[C@H]1N(S(=O)(=O)c1ccccc1)c1ccccc12` here?
Answer: > 100 µM (inactive)

Question: And the GI50 (A498)?
Answer: 81.1 µM (inactive)

Question: What about the GI50 (DU-145) of the same compound?
Answer: 33.5 µM (inactive)

Question: And the GI50 (HCT-116)?
Answer: 62.2 µM (inactive)

Question: What about the GI50 (HT-29) of the same compound?
Answer: > 100 µM (inactive)

Question: And the GI50 (KM12)?
Answer: 85.5 µM (inactive)

Question: What about the GI50 (MDA-N) of the same compound?
Answer: 41.8 µM (inactive)

Question: What about the GI50 (OVCAR-3) of the same compound?
Answer: 87.9 µM (inactive)

Question: What about the GI50 (PC-3) of the same compound?
Answer: 34.6 µM (inactive)

Question: What about the GI50 (SF-539) of the same compound?
Answer: > 100 µM (inactive)

Question: And the GI50 (SK-MEL-28)?
Answer: > 100 µM (inactive)

Question: And the GI50 (SK-MEL-2)?
Answer: 42.3 µM (inactive)

Question: What about the GI50 (SN12C) of the same compound?
Answer: 89.7 µM (inactive)

Question: What about the GI50 (SNB-19) of the same compound?
Answer: > 100 µM (inactive)

Question: And the GI50 (T47D)?
Answer: 30.9 µM (inactive)

Question: What about the GI50 (TK-10) of the same compound?
Answer: > 100 µM (inactive)

Question: And the GI50 (UACC-257)?
Answer: 45.7 µM (inactive)

Question: With `Cc1cccc(-c2cc(O)c3c(C)ccnc3n2)c1` as the compound, how does the GI50 (786-0) read?
Answer: 0.564 µM (active)

Question: And the GI50 (A498)?
Answer: 0.791 µM (active)

Question: And the GI50 (DU-145)?
Answer: 1.05 µM (active)

Question: What about the GI50 (HCT-116) of the same compound?
Answer: 0.355 µM (active)

Question: And the GI50 (HT-29)?
Answer: 0.339 µM (active)

Question: What about the GI50 (KM12) of the same compound?
Answer: 0.209 µM (active)

Question: What about the GI50 (M14) of the same compound?
Answer: 0.291 µM (active)

Question: What about the GI50 (MDA-N) of the same compound?
Answer: 0.0474 µM (active)

Question: What about the GI50 (OVCAR-3) of the same compound?
Answer: 0.256 µM (active)

Question: And the GI50 (PC-3)?
Answer: 0.371 µM (active)

Question: What about the GI50 (SF-539) of the same compound?
Answer: 0.456 µM (active)

Question: And the GI50 (SK-MEL-28)?
Answer: > 61.1 µM (inactive)

Question: What about the GI50 (SK-MEL-2) of the same compound?
Answer: 0.321 µM (active)

Question: And the GI50 (SN12C)?
Answer: 0.564 µM (active)

Question: What about the GI50 (SNB-19) of the same compound?
Answer: 0.447 µM (active)

Question: And the GI50 (T47D)?
Answer: 0.826 µM (active)

Question: And the GI50 (TK-10)?
Answer: > 53.1 µM (inactive)

Question: And the GI50 (UACC-62)?
Answer: 0.461 µM (active)

Question: What does the source list for `C/C(=N\NC(=S)N(C)C)c1nc2cccnc2[nH]1`?
Answer: GI50 (786-0): 0.597 µM (active); GI50 (A498): 8.28 µM (inactive); GI50 (DU-145): 0.504 µM (active); GI50 (HCT-116): 0.893 µM (active); GI50 (HT-29): 0.548 µM (active); GI50 (M14): 0.547 µM (active); GI50 (MDA-N): 1.27 µM (inactive); GI50 (PC-3): 0.698 µM (active); GI50 (SF-539): 0.536 µM (active); GI50 (SK-MEL-28): 1.03 µM (active); GI50 (SK-MEL-2): 0.583 µM (active); GI50 (SN12C): 1.16 µM (inactive); GI50 (SNB-19): 1.02 µM (active); GI50 (T47D): 0.475 µM (active); GI50 (TK-10): 2.1 µM (inactive); GI50 (UACC-257): 2.01 µM (inactive); GI50 (UACC-62): 0.396 µM (active)

Question: Which results are given for `CN(/N=C(\C(=O)O)c1ccccc1)C1=NCCCN1`?
Answer: GI50 (786-0): > 100 µM (inactive); GI50 (A498): > 100 µM (inactive); GI50 (DU-145): > 100 µM (inactive); GI50 (HCT-116): > 100 µM (inactive); GI50 (HT-29): > 100 µM (inactive); GI50 (KM12): > 100 µM (inactive); GI50 (MDA-N): > 100 µM (inactive); GI50 (OVCAR-3): > 100 µM (inactive); GI50 (PC-3): > 100 µM (inactive); GI50 (SF-539): > 100 µM (inactive); GI50 (SK-MEL-28): > 100 µM (inactive); GI50 (SK-MEL-2): > 100 µM (inactive); GI50 (SN12C): > 100 µM (inactive); GI50 (T47D): > 100 µM (inactive); GI50 (TK-10): > 100 µM (inactive); GI50 (UACC-257): > 100 µM (inactive); GI50 (UACC-62): > 100 µM (inactive)
